# Results as given in patent publication US20080255134A1 (Artesian Therapeutics, Inc., priority 2004, published 2008).
# Read-outs that look alike come from different tables or passages of the source.
# Biological target: T1, PDE3 (Homo sapiens, UniProt Q14432)
# T1 construct: from tissue; host or cells: human platelets
# Experiment: In vitro assay for cAMP PDE-3 inhibitory activity
# Format: biochemical
# Details: human platelet cyclic AMP phosphodiesterase, bound stated
# Description: Human platelet cyclic AMP phosphodiesterase was prepared according to the method of Alvarez et al., Mol. Pharmacol. 29: 554 (1986). The PDE incubation medium contained 10 mM Tris-HCl buffer, pH 7.7, 10 mM MgSO4, and 1 μM […] (0.2 μCi) in a total volume of 1.0 mL. Test compounds were dissolved in DMSO immediately prior to addition to the incubation medium, and the resulting mixture was allowed to stand for 10 minutes prior to the addition of enzyme. Following the addition of PDE, the contents were mixed and incubated for 10 minutes at 30° C. Three assays each were performed for each of five test compound concentrations, the mean of the determinations (n=3) at each concentration was plotted, and IC50 values were determined graphically.
# The ability of Compounds 25 and 8c to inhibit PDE3 and β-adrenergic receptor activity was examined both in vitro and in vivo. […] Non-selective β-adrenergic and β1-adrenergic radioligand binding assays were performed using rat cortical membranes; β2-adrenergic receptor assays were performed using membranes isolated from CHO cells expressing human, recombinant b2-adrenergic receptor; non-selective α1-adrenergic receptor assays were performed using rat forebrain membranes; and PDE3 binding assays were performed on human platelets. Values in percent illustrate percent inhibition at 1000 nM concentration.
# [1] = read-out: PDE IC50 inhibition values
# T1 sequence (Q14432 whole entry): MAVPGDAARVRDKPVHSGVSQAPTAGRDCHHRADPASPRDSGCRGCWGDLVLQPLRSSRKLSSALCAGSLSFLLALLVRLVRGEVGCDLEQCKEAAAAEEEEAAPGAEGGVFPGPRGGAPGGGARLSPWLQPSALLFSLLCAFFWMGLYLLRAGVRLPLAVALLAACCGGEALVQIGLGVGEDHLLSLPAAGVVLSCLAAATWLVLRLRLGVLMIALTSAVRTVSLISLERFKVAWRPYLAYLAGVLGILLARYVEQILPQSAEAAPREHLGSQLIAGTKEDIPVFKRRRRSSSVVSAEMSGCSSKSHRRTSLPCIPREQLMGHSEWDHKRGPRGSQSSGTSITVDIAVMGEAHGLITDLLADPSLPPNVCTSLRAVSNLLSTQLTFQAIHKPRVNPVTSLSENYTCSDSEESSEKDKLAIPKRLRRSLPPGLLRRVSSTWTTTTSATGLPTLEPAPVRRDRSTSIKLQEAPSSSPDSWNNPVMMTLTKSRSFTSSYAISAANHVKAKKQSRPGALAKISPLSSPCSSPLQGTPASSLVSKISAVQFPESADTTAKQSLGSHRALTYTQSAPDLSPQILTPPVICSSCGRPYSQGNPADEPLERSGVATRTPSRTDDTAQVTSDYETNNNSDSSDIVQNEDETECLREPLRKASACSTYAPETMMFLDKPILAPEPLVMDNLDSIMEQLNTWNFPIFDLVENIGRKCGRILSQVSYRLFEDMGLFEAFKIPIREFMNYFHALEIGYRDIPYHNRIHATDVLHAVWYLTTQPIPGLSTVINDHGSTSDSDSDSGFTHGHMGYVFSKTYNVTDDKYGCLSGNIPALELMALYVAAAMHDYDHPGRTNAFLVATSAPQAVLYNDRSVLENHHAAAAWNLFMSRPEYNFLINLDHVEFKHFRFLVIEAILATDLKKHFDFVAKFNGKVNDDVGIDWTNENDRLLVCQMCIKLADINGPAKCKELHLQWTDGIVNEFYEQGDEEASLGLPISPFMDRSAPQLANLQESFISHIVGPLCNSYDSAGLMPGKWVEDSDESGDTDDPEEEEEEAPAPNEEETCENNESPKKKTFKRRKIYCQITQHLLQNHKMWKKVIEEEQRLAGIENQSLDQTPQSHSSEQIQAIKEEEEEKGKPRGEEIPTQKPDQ
Compound,IC50 (read-out: PDE3 inhibition IC50) [nM],IC50 [1] [nM]
"O=C1CCC(c2ccc(OCC(=O)N3CCC(NC[C@H](O)COc4cccc5[nH]c6ccccc6c45)CC3)c(Cl)c2)=NN1 [Compound 17, 6-[4-(2-{4-[(S)-3-(9H-Carbazol-4-yloxy)-2-hydroxy-propylamino]-piperidin-1-yl}-2-oxo-ethoxy)-3-chloro-phenyl]-4,5-dihydro-2H-pyridazin-3-one]",< 1000,–
O=C1CCC(c2ccc(OCCNCC(O)COc3cccc4[nH]ccc34)c(Cl)c2)=NN1 (stereo not shown) [Compound 52],< 1000,< 100
"COCCc1ccc(OC[C@@H](O)CNC(C)(C)CNC(=O)COc2ccc(C3=NNC(=O)CC3)cc2Cl)cc1 [Compound 40, 2-[2-Chloro-4-(6-oxo-1,4,5,6-tetrahydro-pyridazin-3-yl)-phenoxy]-N-(2-{(S)-2-hydroxy-3-[4-(2-methoxy-ethyl)-phenoxy]-propylamino}-2-methyl-propyl)-acetamide]",< 1000,–
"O=C1CCC(c2ccc(OCCCNCC(O)COc3cccc4[nH]c5ccccc5c34)c(Cl)c2)=NN1 (stereo not shown) [Compound 64, 6-(4-{3-[3-(9H-Carbazol-4-yloxy)-2-hydroxy-propylamino]-propoxy}-3-chloro-phenyl)-4,5-dihydro-2H-pyridazin-3-one]",< 1000,< 100
O=C1CCC(c2ccc(OCCCCNCC(O)COc3cccc4[nH]c5ccccc5c34)c(Cl)c2)=NN1 (stereo not shown) [Compound 56],< 1000,< 100
"O=C1CCC(c2ccc(OCCCNC[C@H](O)COc3ccc4c(c3)[nH]c3ccccc34)c(Cl)c2)=NN1 [Compound 35, 6-(4-{3-[(S)-3-(9H-Carbazol-2-yloxy)-2-hydroxy-propylamino]-propoxy}-3-chloro-phenyl)-4,5-dihydro-2H-pyridazin-3-one]",< 1000,–
O=C1CCC(c2ccc(OCCCCCNCC(O)COc3cccc4[nH]c5ccccc5c34)c(Cl)c2)=NN1 (stereo not shown) [Compound 57],< 1000,–
"COCCc1ccc(OC[C@@H](O)CNC2CN(C(=O)COc3ccc(C4=NNC(=O)CC4)cc3Cl)C2)cc1 [Compound 48, 6-{3-Chloro-4-[2-(3-{(S)-2-hydroxy-3-[4-(2-methoxy-ethyl)-phenoxy]-propylamino}-azetidin-1-yl)-2-oxo-ethoxy]-phenyl}-4,5-dihydro-2H-pyridazin-3-one]",< 1000,–
"O=C1CCC(c2ccc(OCCNC[C@H](O)COc3cccc4[nH]c5ccccc5c34)c(Cl)c2)=NN1 [Compound 22, 6-(4-{2-[(S)-3-(9H-carbazol-4-yloxy)-2-hydroxy-propylamino]-ethoxy}-3-chloro-phenyl)-4,5-dihydro-2H-pyridazin-3-one]",< 1000,< 100
"O=C1CCC(c2ccc(OCC(=O)N3CC(NCC(O)COc4cccc5[nH]c6ccccc6c45)C3)c(Cl)c2)=NN1 (stereo not shown) [Compound 75, 6-[4-(2-{3-[3-(9H-Carbazol-4-yloxy)-2-hydroxy-propylamino]-azetidin-1-yl}-2-oxo-ethoxy)-3-chloro-phenyl]-4,5-dihydro-2H-pyridazin-3-one]",< 1000,–
"COCCc1ccc(OCC(O)CNC2CCN(C(=O)COc3ccc(C4=NNC(=O)CC4)cc3Cl)CC2)cc1 (racemic) [Compound 13, 6-{3-Chloro-4-[2-(4-{2-hydroxy-3-[4-(2-methoxy-ethyl)-phenoxy]-propylamino}-piperidin-1-yl)-2-oxo-ethoxy]-phenyl}-4,5-dihydro-2H-pyridazin-3-one]",< 1000,–
COCCc1ccc(OC[C@@H](O)CNCCCCCOc2ccc(C3=NNC(=O)CC3)cc2Cl)cc1 [Compound 46],< 1000,–
"O=C1CCC(c2ccc(OCCCNC[C@H](O)COc3cccc4[nH]c5ccccc5c34)c(Cl)c2)=NN1 [Compound 29, 6-(4-{3-[(S)-3-(9H-Carbazol-4-yloxy)-2-hydroxy-propylamino]-propoxy}-3-chloro-phenyl)-4,5-dihydro-2H-pyridazin-3-one]",< 1000,< 100
"O=C1CCC(c2ccc(OCC(=O)N3CCC(NC[C@H](O)COc4ccc5c(c4)[nH]c4ccccc45)CC3)c(Cl)c2)=NN1 [Compound 33, 6-[4-(2-{4-[(S)-3-(9H-Carbazol-2-yloxy)-2-hydroxy-propylamino]-piperidin-1-yl}-2-oxo-ethoxy)-3-chloro-phenyl]-4,5-dihydro-2H-pyridazin-3-one]",< 1000,–
"O=C1CCC(c2ccc(OCCNCC(O)COc3ccc4c(c3)[nH]c3ccccc34)c(Cl)c2)=NN1 (stereo not shown) [Compound 34, 6-(4-{2-[3-(9H-carbazol-2-yloxy)-2-hydroxy-propylamino]-ethoxy}-3-chloro-phenyl)-4,5-dihydro-2H-pyridazin-3-one]",< 1000,–
"COCCc1ccc(OC[C@@H](O)CNC2CCN(C(=O)COc3ccc(C4=NNC(=O)CC4)cc3Cl)C2)cc1 (stereo partly drawn) [Compound 42, 6-{3-Chloro-4-[2-(3-{(S)-2-hydroxy-3-[4-(2-methoxy-ethyl)-phenoxy]-propylamino}-pyrrolidin-1-yl)-2-oxo-ethoxy]-phenyl}-4,5-dihydro-2H-pyridazin-3-one]",< 1000,–
COCCc1ccc(OC[C@@H](O)CNCCCOc2ccc(C3=NNC(=O)CC3)cc2Cl)cc1 [Compound 36],< 1000,< 100

# More lines, now with the values ahead:
IC50 (read-out: PDE3 inhibition IC50) [nM],IC50 [1] [nM],Compound
< 1000,–,"O=C1CCC(c2ccc(OCC(=O)N3CCC(NC[C@H](O)COc4cccc(Br)c4)CC3)c(Cl)c2)=NN1 [Compound 8l, 6-[4-(2-{4-[3-(3-bromo-phenoxy)-2-hydroxy-propylamino]-piperidin-1-yl}-2-oxo-ethoxy)-3-chloro-phenyl]-4,5-dihydro-2H-pyridazin-3-one]"
< 1000,–,"COc1ccccc1OC[C@@H](O)CNC1CCN(C(=O)COc2ccc(C3=NNC(=O)CC3)cc2Cl)CC1 [Compound 8h, 6-[3-chloro-4-(2-{4-[2-hydroxy-3-(2-methoxy-phenoxy)-propylamino]-piperidin-1-yl}-2-oxo-ethoxy)-phenyl]-4,5-dihydro-2H-pyridazin-3-one]"
< 1000,–,"O=C1CCC(c2ccc(OCC(=O)N3CCC(NC[C@H](O)COc4ccccc4F)CC3)c(Cl)c2)=NN1 [Compound 8b, 6-[3-Chloro-4-(2-{4-[3-(2-fluoro-phenoxy)-2-hydroxy-propylamino]-piperidin-1-yl}-2-oxo-ethoxy)-phenyl]-4,5-dihydro-2H-pyridazin-3-one]"
< 1000,–,"O=C1CCC(c2ccc(OCC(=O)N3CCC(NC[C@H](O)COc4ccccc4)CC3)c(Cl)c2)=NN1 [Compound 8a, 6-(3-chloro-4-{2-[4-(2-hydroxy-3-phenoxy-propylamino)-piperidin-1-yl]-2-oxo-ethoxy}-phenyl)-4,5-dihydro-2H-pyridazin-3-one]"
< 1000,–,"CC(C)(CNC(=O)COc1ccc(C2=NNC(=O)CC2)cc1Cl)NCC(O)COc1c(Br)ccc2[nH]c3ccccc3c12 (stereo not shown) [Compound 72a, N-{2-[3-(3-Bromo-9H-carbazol-4-yloxy)-2-hydroxy-propylamino]-2-methyl-propyl}-2-[2-chloro-4-(6-oxo-1,4,5,6-tetrahydro-pyridazin-3-yl)-phenoxy]-acetamide]"
< 1000,–,"N#Cc1ccccc1OC[C@@H](O)CNC1CCN(C(=O)COc2ccc(C3=NNC(=O)CC3)cc2Cl)CC1 [Compound 8e, 2-[3-(1-{2-[2-chloro-4-(6-oxo-1,4,5,6-tetrahydro-pyridazin-3-yl)-phenoxy]-acetyl}-piperidin-4-ylamino)-2-hydroxy-propoxy]-benzonitrile]"
< 1000,< 100,"C=CCc1ccccc1OC[C@@H](O)CNC1CCN(C(=O)COc2ccc(C3=NNC(=O)CC3)cc2Cl)CC1 [Compound 8j, 6-[4-(2-{4-[3-(2-allyl-phenoxy)-2-hydroxy-propylamino]-piperidin-1-yl}-2-oxo-ethoxy)-3-chloro-phenyl]-4,5-dihydro-2H-pyridazin-3-one]"
< 1000,–,"N#Cc1ccc(OC[C@@H](O)CNC2CCN(C(=O)COc3ccc(C4=NNC(=O)CC4)cc3Cl)CC2)cc1 [Compound 8o, 4-[3-(1-{2-[2-chloro-4-(6-oxo-1,4,5,6-tetrahydro-pyridazin-3-yl)-phenoxy]-acetyl}-piperidin-4-ylamino)-2-hydroxy-propoxy]-benzonitrile]"
< 1000,–,"COCCc1ccc(OC[C@@H](O)CNC2CCN(C(=O)COc3ccc(C4=NNC(=O)CC4)cc3Cl)CC2)cc1 [Compound 8r, 6-{3-chloro-4-[2-(4-{2-hydroxy-3-[4-(2-methoxy-ethyl)-phenoxy]-propylamino}-piperidin-1-yl)-2-oxo-ethoxy]-phenyl}-4,5-dihydro-2H-pyridazin-3-one]"
< 1000,–,"CC(=O)c1ccccc1OC[C@@H](O)CNC1CCN(C(=O)COc2ccc(C3=NNC(=O)CC3)cc2Cl)CC1 [Compound 8k, 6-[4-(2-{4-[3-(2-acetyl-phenoxy)-2-hydroxy-propylamino]-piperidin-1-yl}-2-oxo-ethoxy)-3-chloro-phenyl]-4,5-dihydro-2H-pyridazin-3-one]"
< 1000,–,"N#Cc1cccc(OC[C@@H](O)CNC2CCN(C(=O)COc3ccc(C4=NNC(=O)CC4)cc3Cl)CC2)c1 [Compound 8m, 3-[3-(1-{2-[2-chloro-4-(6-oxo-1,4,5,6-tetrahydro-pyridazin-3-yl)-phenoxy]-acetyl}-piperidin-4-ylamino)-2-hydroxy-propoxy]-benzonitrile]"
< 1000,< 100,"O=C1CCC(c2ccc(OCC(=O)N3CCC(NC[C@H](O)COc4ccccc4OC(F)(F)F)CC3)c(Cl)c2)=NN1 [Compound 8i, 6-[3-chloro-4-(2-{4-[2-hydroxy-3-(2-trifluoromethoxy-phenoxy)-propylamino]-piperidin-1-yl}-2-oxo-ethoxy)-phenyl]-4,5-dihydro-2H-pyridazin-3-one]"
